The record followed here is ChEMBL document CHEMBL4304829, “PROTAC Degradation of IRAK4 for the Treatment of Cancer” (ACS Med Chem Lett, 2019).

Common to all, as to assay type: cell-based
In test [1] the target is T1, Protein cereblon/Interleukin-1 receptor-associated kinase 4 (Homo sapiens) (UniProt Q9NWZ3+Q96SW2). Briefly: Protac activity at IRAK4 in human OCl-LY10 cells assessed as increase in E3 ubiquitin ligase mediated IRAK4 degradation at 0.1 uM incubated for 4 hrs by Western blot analysis relative to control. For orientation: A western blot detects proteins with antibodies after separation by electrophoresis.
T1 sequence (Q96SW2 whole entry, looked up): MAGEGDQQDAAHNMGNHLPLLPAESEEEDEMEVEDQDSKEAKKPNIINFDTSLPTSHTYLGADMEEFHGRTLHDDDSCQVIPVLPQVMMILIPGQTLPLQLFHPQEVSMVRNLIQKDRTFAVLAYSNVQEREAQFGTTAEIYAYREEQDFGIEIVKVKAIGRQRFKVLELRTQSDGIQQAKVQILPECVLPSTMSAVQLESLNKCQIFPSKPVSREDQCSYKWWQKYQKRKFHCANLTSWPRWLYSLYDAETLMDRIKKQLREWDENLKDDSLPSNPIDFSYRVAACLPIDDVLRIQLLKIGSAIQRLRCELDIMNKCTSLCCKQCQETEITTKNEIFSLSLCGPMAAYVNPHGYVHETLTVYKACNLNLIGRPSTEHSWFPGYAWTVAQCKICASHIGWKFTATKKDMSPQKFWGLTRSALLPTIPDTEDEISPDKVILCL
T1 sequence (Q9NWZ3 whole entry, looked up): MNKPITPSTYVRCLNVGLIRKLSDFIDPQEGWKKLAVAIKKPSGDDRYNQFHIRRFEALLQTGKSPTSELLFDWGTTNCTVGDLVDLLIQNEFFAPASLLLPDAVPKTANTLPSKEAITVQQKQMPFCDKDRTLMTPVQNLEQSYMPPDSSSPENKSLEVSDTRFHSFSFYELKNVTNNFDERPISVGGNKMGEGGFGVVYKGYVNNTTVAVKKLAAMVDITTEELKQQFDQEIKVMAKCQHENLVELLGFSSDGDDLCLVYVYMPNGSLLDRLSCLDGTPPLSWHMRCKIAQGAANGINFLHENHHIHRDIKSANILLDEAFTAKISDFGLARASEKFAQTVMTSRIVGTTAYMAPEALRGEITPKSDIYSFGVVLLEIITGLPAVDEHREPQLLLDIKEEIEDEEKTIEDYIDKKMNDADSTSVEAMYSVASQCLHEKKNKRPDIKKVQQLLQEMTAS

Test [2] has as its target T1, Protein cereblon/Interleukin-1 receptor-associated kinase 4 (Homo sapiens). Put plainly: Protac activity at IRAK4 in human OCl-LY10 cells assessed as increase in E3 ubiquitin ligase mediated IRAK4 degradation at 1 uM incubated for 4 hrs by Western blot analysis relative to control.
Test [3] shares this target. Put plainly: Protac activity at IRAK4 in human OCl-LY10 cells assessed as increase in E3 ubiquitin ligase mediated IRAK4 degradation at 0.01 uM incubated for 4 hrs by Western blot analysis relative to control.

Where only a bound is given, the exact number is not on record here.

In the case of `CN(CCOCCOCCCc1ccc2c(c1)C(=O)N(C1CCC(=O)NC1=O)C2=O)Cc1ccc(-n2cc(NC(=O)c3coc(-c4ccncc4)n3)c(C(N)=O)n2)cc1` (stereo not given), the Activity in test [1] was greater than 50%; in test [2], greater than 50%; in test [3], greater than 20%.

In the case of `NC(=O)c1nn(-c2ccc(CNCC3CN(CCOCCNc4cccc5c4C(=O)N(C4CCC(=O)NC4=O)C5=O)CCO3)cc2)cc1NC(=O)c1coc(-c2ccnc(NCC(F)(F)F)c2)n1` (stereo not given), the Activity in test [1], in test [2] and in test [3] was greater than 50% each time.

Regarding `CN(CCOCCCc1cccc2c1C(=O)N(C1CCC(=O)NC1=O)C2=O)Cc1ccc(-n2cc(NC(=O)c3coc(-c4ccnc(NCC5CC5)c4)n3)c(C(N)=O)n2)cc1` (stereo not given), the Activity was greater than 50% in test [1], greater than 50% in test [2] and greater than 20% in test [3].

For `CN(CCOCCOCCCc1ccc2c(c1)C(=O)N(C1CCC(=O)NC1=O)C2=O)C(=O)c1ccc(-n2cc(NC(=O)c3coc(-c4ccnc(NCC5CC5)c4)n3)c(C(N)=O)n2)cc1` (stereo not given), the Activity in test [1], in test [2] and in test [3] was greater than 50% in each case.

Regarding `NC(=O)c1nn(-c2ccc(C(=O)NCC3CCCCN3CCOCCNc3cccc4c3C(=O)N(C3CCC(=O)NC3=O)C4=O)cc2)cc1NC(=O)c1coc(-c2ccnc(NCC(F)(F)F)c2)n1` (stereo not given), the Activity in test [1], in test [2] and in test [3] was greater than 50% each time.

For `O=C1CCC(n2c(=O)oc3c(CCCOCCOCCNC(=O)c4ccc(-n5cc(NC(=O)c6coc(-c7ccnc(NCC8CC8)c7)n6)c(C(F)F)n5)cc4)cccc32)C(=O)N1` (stereo not given), the Activity in test [1] was greater than 50%; in test [2] it was greater than 50%; in test [3], greater than 20%.

Turning to `O=C1CCC(N2C(=O)c3cccc(NC4CCN(CCOCCOCCNC(=O)c5ccc(-n6cc(NC(=O)c7coc(-c8ccnc(NCC(F)(F)F)c8)n7)c(C(F)F)n6)cc5)CC4)c3C2=O)C(=O)N1` (stereo not given), the Activity in test [1], in test [2] and in test [3] was greater than 50% each time.

As to `O=C1CCC(N2C(=O)c3cccc(NCCNCCOCCNC(=O)c4ccc(-n5cc(NC(=O)c6coc(-c7ccnc(NCC8CC8)c7)n6)c(C(F)(F)F)n5)cc4)c3C2=O)C(=O)N1` (stereo not given), the Activity in test [1], in test [2] and in test [3] was greater than 50% throughout.

In the case of `NCc1nn(-c2ccc(C(=O)NCCOCCOCCNc3cccc4c3C(=O)N(C3CCC(=O)NC3=O)C4=O)cc2)cc1NC(=O)c1coc(-c2ccnc(NCC(F)(F)F)c2)n1` (stereo not given), the Activity in test [1], in test [2] and in test [3] was greater than 50% in each case.

As for `CN(CCOCCOCCCc1ccc2c(c1)C(=O)N(C1CCC(=O)NC1=O)C2=O)Cc1ccc(-n2cc(NC(=O)c3coc(-c4ccnc(NCC5CC5)c4)n3)c(C(N)=O)n2)cc1` (stereo not given), the Activity in test [1] is greater than 50%; in test [2] it was greater than 50%; in test [3], greater than 20%.
